{"source": "patent US20190209682A1", "about": "“ISOFORM-SPECIFIC, CONTEXT-PERMISSIVE TGFB1 INHIBITORS AND USE THEREOF” (Scholar Rock, Inc., priority 2017, published 2019)", "key": {"[1]": {"test": "Rat toxicity study, Phase II", "format": "in vivo"}, "[2]": {"test": "Rat toxicity study, Phase I", "settings": "for Aortic root: Hemorrhage, Minimal / Aortic root: Infiltrate, mixed cell, Minimal / Atrium: Hemorrhage, Minimal / Atrium: Hyperplasia, endothelium, Minimal / Atrium: Infiltrate, mixed cell, Minimal / Atrium: Infiltrate, mixed cell, Slight / Coronary artery: Necrosis with inflammation, Slight / Heart valves: Valvulopathy, Minimal / Heart valves: Valvulopathy, Moderate / Heart valves: Valvulopathy, Slight / Myocardium: Degeneration/necrosis, Minimal / Myocardium: Degeneration/necrosis, Slight / Myocardium: Hemorrhage, Slight / Myocardium: Infiltrate, mixed cell, Slight: incidence", "experimental": "Animal body weight was determined at days 1, 3, and 7 of the dosing phase. Animals were sacrificed at day 8 and necropsies performed."}, "[3]": {"test_system": "tonic SMAD2/3 signaling in BAL cells", "test": "Pharmacodynamics, tonic phospho-SMAD2/3 in BAL cells of healthy rats", "format": "in vivo, rat", "settings": "single oral gavage dose 100 mg/kg, 2 hours post-dosing", "method": "To confirm isoform-selective inhibition of TGFβ1 in vivo, a pharmacodynamics study was conducted in which effects of Ab3 on tonic phospho-SMAD2/3 levels were assessed in bronchoalveolar lavage (BAL) cells collected from healthy rats. It is reported in the literature that under homeostatic conditions, BAL cells predominantly express TGFβ2/3, but little TGFβ1, while the latter becomes preferentially elevated in pathologic conditions.\nHealthy Sprague Dawley rats (approximately 6-8 weeks old, weighing 200-250 g at the beginning of the study; Charles River) were randomized by bodyweight into study groups and dosed as described below.\nAnimals received test antibodies (huNEG-mIgG1, […], or Ab3) on Days 1, 8, and 15 by intraperitoneal injection. Animals are euthanized on Day 16 for BAL and serum collections. One group of control animals was dosed with a single oral gavage (PO) dose of LY2109761 (small molecule ALK5 inhibitor) at 100 mg/kg and was euthanized at 2 hours (+/−20 min) post-dosing for BAL collections.\nTo collect BAL samples, the whole lung was lavaged three times with 5.0 mL of ice-cold Dulbecco's phosphate buffered saline. […]\nPhospho-SMAD2/3 assays were performed by ELISA (Cell Signaling Technologies) according to the manufacturer's instructions. Results were assessed by phosphorylated-to-total SMAD2/3 ratios."}, "[4]": {"settings": "200 mg/kg oral gavage once daily for five days"}}, "data": [{"smiles": "c1ccc(-c2nn3c(c2-c2ccnc4cc(OCCN5CCOCC5)ccc24)CCC3)nc1", "note": "[LY2109761]", "values": [{"measurement": "Heart weights", "setting": "[1]; 200 mg/kg", "value": "increased heart weights"}, {"measurement": "Liver weights", "setting": "[1]; 200 mg/kg", "value": "Increased liver weights"}, {"measurement": "Thymus weights", "setting": "[1]; 200 mg/kg", "value": "decreased thymus weights"}, {"measurement": "Thyroid weights", "setting": "[1]; 200 mg/kg", "value": "increased thyroid weights"}, {"measurement": "Uterus weights", "setting": "[1]; 200 mg/kg", "value": "decreased uterus weights"}, {"measurement": "Heart findings", "setting": "[1]; [4]", "value": "test article-related heart findings occurred"}, {"measurement": "Microscopic findings in bones, liver, pancreas (artery), thymus, thyroid, female reproductive tissues, mammary gland", "setting": "[1]; [4]", "value": "microscopic findings occurred"}, {"measurement": "Animals found dead at day 7", "setting": "[2]; 200 mg/kg oral gavage once daily, n=5", "value": "Two"}, {"measurement": "Aortic root: Hemorrhage, Minimal", "setting": "[2]; 200 mg/kg/day, n=5", "value": 1}, {"measurement": "Aortic root: Infiltrate, mixed cell, Minimal", "setting": "[2]; 200 mg/kg/day, n=5", "value": 1}, {"measurement": "Atrium: Hemorrhage, Minimal", "setting": "[2]; 200 mg/kg/day, n=5", "value": 1}, {"measurement": "Atrium: Hyperplasia, endothelium, Minimal", "setting": "[2]; 200 mg/kg/day, n=5", "value": 1}, {"measurement": "Atrium: Infiltrate, mixed cell, Minimal", "setting": "[2]; 200 mg/kg/day, n=5", "value": 2}, {"measurement": "Atrium: Infiltrate, mixed cell, Slight", "setting": "[2]; 200 mg/kg/day, n=5", "value": 0}, {"measurement": "Coronary artery: Necrosis with inflammation, Slight", "setting": "[2]; 200 mg/kg/day, n=5", "value": 0}, {"measurement": "Heart valves: Valvulopathy, Minimal", "setting": "[2]; 200 mg/kg/day, n=5", "value": 1}, {"measurement": "Heart valves: Valvulopathy, Moderate", "setting": "[2]; 200 mg/kg/day, n=5", "value": 1}, {"measurement": "Heart valves: Valvulopathy, Slight", "setting": "[2]; 200 mg/kg/day, n=5", "value": 3}, {"measurement": "Myocardium: Degeneration/necrosis, Minimal", "setting": "[2]; 200 mg/kg/day, n=5", "value": 0}, {"measurement": "Myocardium: Degeneration/necrosis, Slight", "setting": "[2]; 200 mg/kg/day, n=5", "value": 1}, {"measurement": "Myocardium: Hemorrhage, Slight", "setting": "[2]; 200 mg/kg/day, n=5", "value": 1}, {"measurement": "Myocardium: Infiltrate, mixed cell, Slight", "setting": "[2]; 200 mg/kg/day, n=5", "value": 0}, {"measurement": "Mortality", "setting": "[2]; 300 mg/kg oral gavage once daily, days 3, 6, or 7, all animals, n=5", "value": "sacrificed in a moribund condition or found dead"}, {"measurement": "Aortic root: Hemorrhage, Minimal", "setting": "[2]; 300 mg/kg/day, n=5", "value": 0}, {"measurement": "Aortic root: Infiltrate, mixed cell, Minimal", "setting": "[2]; 300 mg/kg/day, n=5", "value": 0}, {"measurement": "Atrium: Hemorrhage, Minimal", "setting": "[2]; 300 mg/kg/day, n=5", "value": 2}, {"measurement": "Atrium: Hyperplasia, endothelium, Minimal", "setting": "[2]; 300 mg/kg/day, n=5", "value": 3}, {"measurement": "Atrium: Infiltrate, mixed cell, Minimal", "setting": "[2]; 300 mg/kg/day, n=5", "value": 3}, {"measurement": "Atrium: Infiltrate, mixed cell, Slight", "setting": "[2]; 300 mg/kg/day, n=5", "value": 1}, {"measurement": "Coronary artery: Necrosis with inflammation, Slight", "setting": "[2]; 300 mg/kg/day, n=5", "value": 1}, {"measurement": "Heart valves: Valvulopathy, Minimal", "setting": "[2]; 300 mg/kg/day, n=5", "value": 2}, {"measurement": "Heart valves: Valvulopathy, Moderate", "setting": "[2]; 300 mg/kg/day, n=5", "value": 0}, {"measurement": "Heart valves: Valvulopathy, Slight", "setting": "[2]; 300 mg/kg/day, n=5", "value": 3}, {"measurement": "Myocardium: Degeneration/necrosis, Minimal", "setting": "[2]; 300 mg/kg/day, n=5", "value": 1}, {"measurement": "Myocardium: Degeneration/necrosis, Slight", "setting": "[2]; 300 mg/kg/day, n=5", "value": 1}, {"measurement": "Myocardium: Hemorrhage, Slight", "setting": "[2]; 300 mg/kg/day, n=5", "value": 0}, {"measurement": "Myocardium: Infiltrate, mixed cell, Slight", "setting": "[2]; 300 mg/kg/day, n=5", "value": 1}, {"measurement": "Animals with clear fluid in the thoracic cavity and enlarged thymus (edema)", "setting": "[2]; 300 mg/kg, found dead on Day 3", "value": "one"}, {"measurement": "Animals with abnormally-shaped sternum", "setting": "[2]; each treatment group, 200 mg/kg or 300 mg/kg", "value": "four"}, {"measurement": "Bone findings", "setting": "[2]; sternum, femur and tibia, higher incidence and/or severity with LY2109761", "value": "macroscopic abnormally shaped sternum and microscopic increased thickness of the hypertrophic zone"}, {"measurement": "Heart valve findings, microscopic", "setting": "[2]; ≥200 mg/kg", "value": "valvulopathy"}, {"measurement": "Heart weights", "setting": "[2]; ≥200 mg/kg", "value": "Increased heart weights"}, {"measurement": "Tonic SMAD2/3 signaling (phosphorylated-to-total SMAD2/3 ratio)", "setting": "[3]", "value": "significantly suppressed"}]}]}
